Measured values taken from publication PMC11375702, “Early Preclinical Studies of Ergosterol Peroxide and Biological Evaluation of Its Derivatives” (ACS Omega, 2024).
Read-outs that look alike come from different tables or passages of the source.

Experiments:
[1] = Plasma stability assay (mouse)
Experimental: Briefly, pooled blood from 3 animals for experiment (male Balb/c 6–8w from the division of laboratory animal medicine in-house breeding colony) was collected, and the heparinized plasma was prepared. Plasma and test compounds were added to individual wells of a 96-well microtiter plate. Compounds were incubated at 37 °C for the provided time points. All tests were performed in triplicates. The test compound was incubated with plasma at six different time points. The reaction was terminated by methanol containing an internal standard. After centrifugation, the concentration of the test compound in the supernatant was quantified by LC-MS/MS.
Plasma stability assay: Briefly, pooled blood from 3 animals for experiment (male Balb/c 6-8w
from the division of laboratory animal medicine in-house breeding colony) was collected, and
the heparinized plasma was prepared. Plasma and test compounds were added to the individual
wells of a 96-well microtiter plate. Compounds were incubated at 37°C for the provided time
points. All tests were performed in triplicates. Then, the test compound was incubated with
plasma at six different time points. The reaction was terminated by the addition of methanol
containing an internal standard. After centrifugation, the concentration of the test compound in
the supernatant was quantified by LC-MS/MS. The percentage of test compound remaining at
compounds are known to be metabolized by plasma esterases,1 and were also incubated with
each batch of test compound.
A standard protocol and MS method was used for the plasma stability experiment. The extraction
procedure for plasma/tissue samples and the spiked plasma/tissue calibration standards were
identical: A 25 µL of study sample or spiked plasma/tissue calibration standard was added to
individual pre-labeled micro-centrifuge tubes followed by 100 µL of internal standard prepared
in Acetonitrile (Albendazole, 500 ng/mL) was added except for blank, where 100 µL of
Acetonitrile was added. Samples were vortexed for 5 minutes. Samples were centrifuged for 5
minutes at a speed of 4000 rpm at 4°C. Following centrifugation, 100 µL of clear supernatant
was transferred in 96 well plates and analyzed using LC-MS/MS mode. The LC system
comprises of a binary pump that can mix two mobile phases: A = Water+0.1% formic acid; B =
acetonitrile +0.1%formic acid. The system was operated in gradient mode using a 6 minute
min, 10-90% A to B in 5.5-6 min, and then hold at this gradient, using a Phenomenex Luna, 150
X 4.6 mm, 5 µm column. Source Parameter: positive, Ion Spray Voltage 5500, Temperature
550C, interface heater on.

[2] = target: T1, CYP3A4 (Homo sapiens, UniProt P08684); assay: Microsomal CYP inhibition assay, CYP3A4; format: in vitro ADME; conditions: pooled human liver microsomes
T1 construct: from tissue; host or cells: pooled human liver microsomes
Experimental: (§1) To assess potential cardiotoxicity, we performed the human ether-go-go-related gene (hERG) inhibition assay. […] Briefly, EP was tested at six concentrations (cumulative concentration–response). […] For hepatotoxicity determination, we performed the microsomal CYP inhibition assay. Briefly, EP was incubated at seven increasing concentrations with pooled human liver microsomes. […] The supernatants were analyzed by LC-MS/MS.

[3] = target: T2, CYP2B6 (Homo sapiens, UniProt P20813); assay: Microsomal CYP inhibition assay, CYP2B6; format: in vitro ADME; conditions: pooled human liver microsomes, probe bupropion
T2 construct: from tissue; host or cells: pooled human liver microsomes
T2 sequence (P20813 1-491): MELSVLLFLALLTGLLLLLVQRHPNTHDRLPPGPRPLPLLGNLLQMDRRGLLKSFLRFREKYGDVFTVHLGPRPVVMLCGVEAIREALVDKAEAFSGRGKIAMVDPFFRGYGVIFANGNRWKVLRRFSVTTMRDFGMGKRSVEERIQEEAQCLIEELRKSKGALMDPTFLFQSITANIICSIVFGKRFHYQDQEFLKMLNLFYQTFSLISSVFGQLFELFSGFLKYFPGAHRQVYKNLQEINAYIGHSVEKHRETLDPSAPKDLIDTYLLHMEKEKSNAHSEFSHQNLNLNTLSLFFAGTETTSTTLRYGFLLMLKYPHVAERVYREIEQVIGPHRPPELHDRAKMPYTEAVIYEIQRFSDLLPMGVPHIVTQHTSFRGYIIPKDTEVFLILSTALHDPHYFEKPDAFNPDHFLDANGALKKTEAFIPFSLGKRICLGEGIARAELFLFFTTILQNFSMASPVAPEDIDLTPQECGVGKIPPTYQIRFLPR
Experimental: as §1

[4] = target: T3, CYP2C19 (Homo sapiens, UniProt P33261); assay: Microsomal CYP inhibition assay, CYP2C19; format: in vitro ADME; conditions: pooled human liver microsomes, probe mephenytoin; read-out: CYP-2C19 inhibition
T3 construct: from tissue; host or cells: pooled human liver microsomes
Experimental: as §1

[5] = target: T4, CYP2C8 (Homo sapiens, UniProt P10632); assay: Microsomal CYP inhibition assay, CYP2C8; format: in vitro ADME; conditions: pooled human liver microsomes, probe amodiaquine
T4 sequence (P10632 1-490): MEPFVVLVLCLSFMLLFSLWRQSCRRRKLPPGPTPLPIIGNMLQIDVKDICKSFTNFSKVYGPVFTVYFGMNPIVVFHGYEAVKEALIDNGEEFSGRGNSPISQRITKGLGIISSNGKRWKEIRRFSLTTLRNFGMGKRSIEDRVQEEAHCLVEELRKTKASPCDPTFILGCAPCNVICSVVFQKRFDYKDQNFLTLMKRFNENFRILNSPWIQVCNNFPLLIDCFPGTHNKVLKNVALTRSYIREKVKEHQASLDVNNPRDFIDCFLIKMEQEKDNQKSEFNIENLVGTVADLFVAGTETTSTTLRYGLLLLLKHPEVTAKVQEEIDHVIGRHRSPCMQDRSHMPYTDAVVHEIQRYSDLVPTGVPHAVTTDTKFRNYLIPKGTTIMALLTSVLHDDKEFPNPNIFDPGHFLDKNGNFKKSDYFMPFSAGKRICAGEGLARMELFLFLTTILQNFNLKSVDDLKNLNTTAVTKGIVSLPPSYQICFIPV
Experimental: as §1

[6] = Plasma protein binding, rapid equilibrium dialysis (human); format: in vitro ADME; conditions: read-out: plasma binding (human) protein binding (converted)
Experimental: (§2) This assay determines the plasma protein binding of a drug or compound and free drug concentration in plasma using rapid equilibrium dialysis. We use the Single-Use RED (rapid equilibrium dialysis, Thermo Scientific) devices to allow the aqueous component of plasma containing the free drug/compound through a dialysis membrane (MWCO ∼ 8000). Sample quantification is determined using a Waters ACQUITY-SOQ UPLC-MS-ELDS-UV system.

[7] = target: CYP2D6 (Homo sapiens, UniProt P10635); assay: Microsomal CYP inhibition assay, CYP2D6; format: in vitro ADME; conditions: pooled human liver microsomes, probe dextromethorphan
Experimental: as §1

[8] = target: T5, hERG cardiac ion channel (Homo sapiens, UniProt Q12809); assay: hERG channel inhibition assay (QPatch HTX, HEK-293); format: cell-based; conditions: hERG tail-current; read-out: hERG pIC50 (converted)
T5 construct: expressed in transfected cells; host or cells: HEK-293
Experimental: as §1

[9] = target: T6, hERG (Homo sapiens, UniProt Q12809); assay: as above; format: cell-based; conditions: human, HEK-293 cells that express hERG
T6 construct: expressed in transfected cells; host or cells: HEK-293
Experimental: as §1

[10] = target: T7, CYP1A2 (Homo sapiens, UniProt P05177); assay: Microsomal CYP inhibition assay, CYP1A2; format: in vitro ADME; conditions: pooled human liver microsomes, probe tacrine
T7 construct: from tissue; host or cells: pooled human liver microsomes
T7 sequence (P05177 1-516): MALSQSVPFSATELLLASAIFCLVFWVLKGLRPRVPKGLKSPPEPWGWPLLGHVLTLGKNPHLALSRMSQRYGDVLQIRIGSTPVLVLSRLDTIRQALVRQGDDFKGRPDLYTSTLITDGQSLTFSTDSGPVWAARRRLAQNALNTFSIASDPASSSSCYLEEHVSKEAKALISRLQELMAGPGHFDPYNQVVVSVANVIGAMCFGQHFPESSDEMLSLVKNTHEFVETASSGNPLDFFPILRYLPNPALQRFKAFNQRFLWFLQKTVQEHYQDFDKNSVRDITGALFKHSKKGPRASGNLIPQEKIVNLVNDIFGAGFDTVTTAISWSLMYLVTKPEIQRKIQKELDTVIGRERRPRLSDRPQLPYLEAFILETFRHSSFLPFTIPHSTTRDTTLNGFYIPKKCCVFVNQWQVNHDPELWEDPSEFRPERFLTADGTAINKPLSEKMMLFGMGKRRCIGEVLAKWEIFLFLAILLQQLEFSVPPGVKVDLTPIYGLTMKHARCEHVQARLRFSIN
Experimental: as §1

[11] = Plasma protein binding, rapid equilibrium dialysis (mouse); format: in vitro ADME; conditions: read-out: plasma binding (mouse) protein binding (converted)
Experimental: as §2

T6 sequence (Q12809 whole entry): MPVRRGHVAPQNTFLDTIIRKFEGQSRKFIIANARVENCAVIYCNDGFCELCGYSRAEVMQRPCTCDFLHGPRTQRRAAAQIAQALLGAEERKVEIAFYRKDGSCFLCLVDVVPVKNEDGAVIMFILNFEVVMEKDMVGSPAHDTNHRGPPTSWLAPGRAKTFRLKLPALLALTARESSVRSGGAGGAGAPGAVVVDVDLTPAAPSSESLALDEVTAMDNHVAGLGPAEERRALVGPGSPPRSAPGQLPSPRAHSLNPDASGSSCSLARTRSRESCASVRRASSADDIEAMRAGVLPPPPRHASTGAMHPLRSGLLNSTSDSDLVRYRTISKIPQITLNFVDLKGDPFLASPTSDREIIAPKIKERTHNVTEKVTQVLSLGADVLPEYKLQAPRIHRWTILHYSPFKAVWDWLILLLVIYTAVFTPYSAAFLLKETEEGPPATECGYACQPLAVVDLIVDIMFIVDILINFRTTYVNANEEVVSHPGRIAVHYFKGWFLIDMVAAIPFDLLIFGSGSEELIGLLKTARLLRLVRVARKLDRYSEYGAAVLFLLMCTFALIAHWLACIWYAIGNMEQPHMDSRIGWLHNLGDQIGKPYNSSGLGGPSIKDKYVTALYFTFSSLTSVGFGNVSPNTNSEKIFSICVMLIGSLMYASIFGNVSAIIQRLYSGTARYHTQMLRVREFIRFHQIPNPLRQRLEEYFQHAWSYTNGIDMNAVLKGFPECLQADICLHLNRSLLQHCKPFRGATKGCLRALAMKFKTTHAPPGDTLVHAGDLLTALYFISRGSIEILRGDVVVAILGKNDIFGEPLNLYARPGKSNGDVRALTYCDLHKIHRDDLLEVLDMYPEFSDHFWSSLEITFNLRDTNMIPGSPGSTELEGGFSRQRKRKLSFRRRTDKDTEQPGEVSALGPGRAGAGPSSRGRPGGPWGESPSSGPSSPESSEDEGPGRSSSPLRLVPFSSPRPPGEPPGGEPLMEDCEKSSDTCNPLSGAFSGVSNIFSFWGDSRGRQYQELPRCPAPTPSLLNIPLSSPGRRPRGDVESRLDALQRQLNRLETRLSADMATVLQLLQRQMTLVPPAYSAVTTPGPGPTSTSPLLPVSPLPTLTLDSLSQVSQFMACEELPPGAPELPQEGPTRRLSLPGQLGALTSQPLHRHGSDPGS
T1 sequence (P08684 whole entry): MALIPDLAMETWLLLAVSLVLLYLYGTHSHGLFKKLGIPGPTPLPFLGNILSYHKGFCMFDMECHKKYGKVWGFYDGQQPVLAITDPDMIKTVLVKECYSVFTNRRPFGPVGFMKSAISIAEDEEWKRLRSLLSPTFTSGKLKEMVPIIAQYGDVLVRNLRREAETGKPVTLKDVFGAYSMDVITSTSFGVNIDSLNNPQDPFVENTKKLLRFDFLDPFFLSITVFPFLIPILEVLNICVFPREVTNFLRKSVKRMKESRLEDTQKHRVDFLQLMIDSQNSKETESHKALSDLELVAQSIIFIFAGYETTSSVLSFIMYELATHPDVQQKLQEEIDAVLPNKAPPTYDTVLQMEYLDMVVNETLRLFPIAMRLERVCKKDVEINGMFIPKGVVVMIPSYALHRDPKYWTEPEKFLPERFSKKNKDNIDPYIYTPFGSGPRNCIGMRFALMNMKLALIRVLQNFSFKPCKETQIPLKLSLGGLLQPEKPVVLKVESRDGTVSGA
T3 sequence (P33261 whole entry): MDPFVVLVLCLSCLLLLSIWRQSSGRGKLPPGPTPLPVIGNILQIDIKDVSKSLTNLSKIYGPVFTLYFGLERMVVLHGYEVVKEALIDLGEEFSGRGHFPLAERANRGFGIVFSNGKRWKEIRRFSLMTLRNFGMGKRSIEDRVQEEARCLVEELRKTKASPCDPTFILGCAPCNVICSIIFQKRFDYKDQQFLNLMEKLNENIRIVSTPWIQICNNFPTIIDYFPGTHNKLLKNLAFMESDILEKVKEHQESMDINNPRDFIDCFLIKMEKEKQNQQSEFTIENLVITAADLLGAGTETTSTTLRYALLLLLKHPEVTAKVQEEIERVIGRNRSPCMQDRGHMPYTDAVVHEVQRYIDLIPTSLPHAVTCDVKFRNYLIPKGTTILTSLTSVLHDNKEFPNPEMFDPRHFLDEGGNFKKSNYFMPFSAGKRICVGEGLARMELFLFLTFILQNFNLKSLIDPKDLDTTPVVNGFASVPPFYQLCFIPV
Chain of CYP2D6 (P10635 whole entry): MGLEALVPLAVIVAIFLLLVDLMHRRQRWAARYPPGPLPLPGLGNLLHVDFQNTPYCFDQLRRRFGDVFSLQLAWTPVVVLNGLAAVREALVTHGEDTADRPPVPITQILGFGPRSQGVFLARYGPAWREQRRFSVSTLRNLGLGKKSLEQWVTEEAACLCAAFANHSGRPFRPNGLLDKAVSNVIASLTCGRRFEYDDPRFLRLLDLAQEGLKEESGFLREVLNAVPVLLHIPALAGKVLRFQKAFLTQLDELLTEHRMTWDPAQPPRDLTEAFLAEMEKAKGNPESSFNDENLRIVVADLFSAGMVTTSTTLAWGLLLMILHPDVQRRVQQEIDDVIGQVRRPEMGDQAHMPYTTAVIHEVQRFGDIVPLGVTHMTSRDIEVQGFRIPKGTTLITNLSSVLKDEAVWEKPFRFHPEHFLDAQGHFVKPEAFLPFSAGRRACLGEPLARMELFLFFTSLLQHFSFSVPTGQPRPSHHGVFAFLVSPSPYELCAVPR
T5 sequence (Q12809 whole entry): as the sequence (Q12809 whole entry) above

What does the source list for CC(C)[C@@H](C)/C=C/[C@@H](C)[C@H]1CC[C@@H]2[C@]1(C)CC[C@H]1[C@]23C=C[C@]2(C[C@@H](O)CC[C@]12C)OO3 [Compound 2, Ergosterol peroxide]?
half-life ([1]; male, Balb/c, mouse, plasma): > 48 h; plasma stability ([1]; species not specified): > 48 h; IC50 ([2]; probe midazolam, read-out: CYP3A4-Midazolam inhibition): > 25 µM; IC50 ([2]; probe testosterone, read-out: CYP3A4-Testos-terone inhibition): > 25 µM; IC50 [3]: > 25 µM; IC50 [4]: 19.9 µM; IC50 [5]: 9.9 µM; fraction unbound [6]: 0.28; IC50 [7]: > 25 µM; IC50 [8]: > 30.2 µM; inhibition at 0.1 µM ([9]; 0.1 μM, first addition): 1.99%; inhibition at 0.3 µM ([9]; 0.3 μM, second addition): 2.99%; inhibition at 1 µM ([9]; 1 μM, 3rd addition): 3.04%; inhibition at 3 µM ([9]; 3 μM, fourth addition): 6.21%; inhibition at 10 µM ([9]; 10 μM, fifth addition): 10.1%; inhibition at 30 µM ([9]; 30 μM, sixth addition): 18.7%; IC50 [10]: 16.3 µM; fraction unbound [11]: 0.14
